Source: patent US20020137929A1, “1 - (3-heterocyclylphenyl) isothiourea, -isourea, -guanidine and -amidine herbicidal agents” (Intellectual Property Department, BASF Aktiengesellschaft, priority 1998, published 2002)

Legend:
CYPIR (Rice Flatsedge) = test: Postemergence weed control under flooded paddy conditions; format: in vivo, Cyperus iria; conditions: postemergence weeds, 3-4 weeks after treatment
In short: (§1)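 Herbicidal effect is judged by eye on a 0–9 scale versus control, 3–4 weeks after dosing. Dosing is into flood water kept 1.5–3 cm over the soil, at about 0.0313–0.500 kg/ha in aqueous/acetone 50/50 v/v, on 3–5 cm weeds and 1.5–2.5-leaf rice seedlings.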

[1] = test system: IPOHE (Morningglory, Ivyleaf); test: Preemergence herbicidal evaluation; format: in vivo, Ipomoea hederacea; conditions: rated 4-5 weeks after treatment
In short: (§2)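 Test compound, dissolved in aqueous acetone, was sprayed over planted soil cups at an equivalent of about 0.0156 to 0.500 kg/ha; seeds had been mixed with potting soil. Greenhouse growth followed, with visual 0-9 scoring of injury at four to five weeks.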

ABUTH (Velvetleaf) [2] = test: Postemergence herbicidal evaluation; format: in vivo, Abutilon theophrasti; conditions: postemergence
In short: (§3)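 First, seedlings were raised for around two weeks. Next, test material in 50/50 acetone/water containing 0.5% TWEEN 20 was sprayed through a nozzle at 40 psi, equivalent to about 0.0156–0.500 kg/ha. Finally, after 4–5 weeks in the greenhouse, plants were rated 0–9.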

ORYSAT (Rice, Tebonnet) = test: Postemergence herbicidal evaluation; format: in vivo, Oryza sativa, (L.) Tebonnet; conditions: postemergence
In short: as §3

[3] = test system: CHEAL (Lambsquarters, Common); test: Postemergence herbicidal evaluation; format: in vivo, Chenopodium album; conditions: postemergence
In short: as §3

ECHCG (Barnyardgrass) [4] = test: Postemergence herbicidal evaluation; format: in vivo, Echinochloa crus-galli; conditions: postemergence
In short: as §3

[5] = test system: TRZAWR (Wheat, Winter, cv Riband); test: Preemergence herbicidal evaluation; format: in vivo, Triticum aestivum; conditions: rated 4-5 weeks after treatment
In short: as §2

[6] = test system: IPOHE (Morningglory, Ivyleaf); test: Postemergence herbicidal evaluation; format: in vivo, Ipomoea hederacea; conditions: postemergence
In short: as §3

[7] = test system: CHEAL (Lambsquarters, Common); test: Preemergence herbicidal evaluation; format: in vivo, Chenopodium album; conditions: rated 4-5 weeks after treatment
In short: as §2

ECHCG (Barnyardgrass) [8] = test: Preemergence herbicidal evaluation; format: in vivo, Echinochloa crus-galli; conditions: rated 4-5 weeks after treatment
In short: as §2

CYPSE (Flatsedge) = test: Postemergence weed control under flooded paddy conditions; format: in vivo, Cyperus serotinus; conditions: postemergence weeds, 3-4 weeks after treatment
In short: as §1

ABUTH (Velvetleaf) [9] = test: Preemergence herbicidal evaluation; format: in vivo, Abutilon theophrasti; conditions: rated 4-5 weeks after treatment
In short: as §2

ZEAMX (Corn, Field) [10] = test: Postemergence herbicidal evaluation; format: in vivo, Zea mays; conditions: postemergence
In short: as §3

[11] = test system: GLXMAW (Soybean, Williams); test: Preemergence herbicidal evaluation; format: in vivo, Glycine max, (L.) Merr. cv Williams; conditions: rated 4-5 weeks after treatment
In short: as §2

SETVI (Foxtail, Green) = test: Postemergence herbicidal evaluation; format: in vivo, Setaria viridis; conditions: postemergence
In short: as §3

ZEAMX (Corn, Field) [12] = test: Preemergence herbicidal evaluation; format: in vivo, Zea mays; conditions: rated 4-5 weeks after treatment
In short: as §2

CASOB (Sicklepod) = test: Preemergence herbicidal evaluation; format: in vivo, Cassia obtusifolia; conditions: rated 4-5 weeks after treatment
In short: as §2

`CCOC(=O)/C=C1/S/C(=N/c2cc(-n3c(=O)cc(C(F)(F)F)n(C)c3=O)c(F)cc2Cl)N(CC(=O)OCC)C1=O` [Compound 14] was tested, and the “Herbicidal rating CYPIR” value (CYPIR (Rice Flatsedge); rate 0.0313 kg/ha) was 4.0, the “Herbicidal rating CYPIR” value (CYPIR (Rice Flatsedge); rate 0.0625 kg/ha) was 5.8 and the “Herbicidal rating CYPIR” value (CYPIR (Rice Flatsedge); rate 0.1250 kg/ha) was 6.8. For the same molecule, the “Herbicidal rating CYPIR” value (CYPIR (Rice Flatsedge); rate 0.2500 kg/ha) was 4.5, the “IPOHE preemergence herbicidal rating” value ([1]; rate 0.0313 kg/ha) was 0.0 and the “IPOHE preemergence herbicidal rating” value ([1]; rate 0.0625 kg/ha) was 1.5. For the same molecule, the “IPOHE preemergence herbicidal rating” value ([1]; rate 0.1250 kg/ha) was 7.5, the “IPOHE preemergence herbicidal rating” value ([1]; rate 0.2500 kg/ha) was 9.0 and the “IPOHE preemergence herbicidal rating” value ([1]; rate 0.5000 kg/ha) was 9.0. The ABUTH herbicidal rating (ABUTH (Velvetleaf) [2]; rate 0.0156 kg/ha) was 9.0, the ABUTH herbicidal rating (ABUTH (Velvetleaf) [2]; rate 0.0313 kg/ha) was 9.0 and the ABUTH herbicidal rating (ABUTH (Velvetleaf) [2]; rate 0.0625 kg/ha) was 9.0. It also gave an ABUTH herbicidal rating (ABUTH (Velvetleaf) [2]; rate 0.1250 kg/ha) of 9.0, an ORYSAT herbicidal rating (ORYSAT (Rice, Tebonnet); rate 0.0156 kg/ha) of 3.5 and an ORYSAT herbicidal rating (ORYSAT (Rice, Tebonnet); rate 0.0313 kg/ha) of 5.5. It also gave an ORYSAT herbicidal rating (ORYSAT (Rice, Tebonnet); rate 0.0625 kg/ha) of 6.0, an ORYSAT herbicidal rating (ORYSAT (Rice, Tebonnet); rate 0.1250 kg/ha) of 8.5 and a CHEAL herbicidal rating ([3]; rate 0.0156 kg/ha) of 9.0. It also gave a CHEAL herbicidal rating ([3]; rate 0.0313 kg/ha) of 9.0, a CHEAL herbicidal rating ([3]; rate 0.0625 kg/ha) of 9.0 and a CHEAL herbicidal rating ([3]; rate 0.1250 kg/ha) of 9.0. For the same molecule, the ECHCG herbicidal rating (ECHCG (Barnyardgrass) [4]; rate 0.0156 kg/ha) was 9.0, the ECHCG herbicidal rating (ECHCG (Barnyardgrass) [4]; rate 0.0313 kg/ha) was 9.0 and the ECHCG herbicidal rating (ECHCG (Barnyardgrass) [4]; rate 0.0625 kg/ha) was 9.0. For the same molecule, the ECHCG herbicidal rating (ECHCG (Barnyardgrass) [4]; rate 0.1250 kg/ha) was 9.0, the “TRZAWR preemergence herbicidal rating” value ([5]; rate 0.0313 kg/ha) was 0.0 and the “TRZAWR preemergence herbicidal rating” value ([5]; rate 0.0625 kg/ha) was 0.0. For the same molecule, the “TRZAWR preemergence herbicidal rating” value ([5]; rate 0.1250 kg/ha) was 0.0, the “TRZAWR preemergence herbicidal rating” value ([5]; rate 0.2500 kg/ha) was 0.0 and the IPOHE herbicidal rating ([6]; rate 0.0156 kg/ha) was 9.0. The IPOHE herbicidal rating ([6]; rate 0.0313 kg/ha) was 9.0, the IPOHE herbicidal rating ([6]; rate 0.0625 kg/ha) was 9.0 and the IPOHE herbicidal rating ([6]; rate 0.1250 kg/ha) was 9.0. For the same molecule, the “CHEAL preemergence herbicidal rating” value ([7]; rate 0.0313 kg/ha) was 9.0, the “CHEAL preemergence herbicidal rating” value ([7]; rate 0.0625 kg/ha) was 9.0 and the “CHEAL preemergence herbicidal rating” value ([7]; rate 0.1250 kg/ha) was 9.0. For the same molecule, the “CHEAL preemergence herbicidal rating” value ([7]; rate 0.2500 kg/ha) was 9.0, the “CHEAL preemergence herbicidal rating” value ([7]; rate 0.5000 kg/ha) was 9.0 and the “ECHCG preemergence herbicidal rating” value (ECHCG (Barnyardgrass) [8]; rate 0.0313 kg/ha) was 0.0. For the same molecule, the “ECHCG preemergence herbicidal rating” value (ECHCG (Barnyardgrass) [8]; rate 0.0625 kg/ha) was 0.0, the “ECHCG preemergence herbicidal rating” value (ECHCG (Barnyardgrass) [8]; rate 0.1250 kg/ha) was 1.0 and the “ECHCG preemergence herbicidal rating” value (ECHCG (Barnyardgrass) [8]; rate 0.2500 kg/ha) was 3.0. The “ECHCG preemergence herbicidal rating” value (ECHCG (Barnyardgrass) [8]; rate 0.5000 kg/ha) was 6.0, the “Herbicidal rating CYPSE” value (CYPSE (Flatsedge); rate 0.0313 kg/ha) was 0.0 and the “Herbicidal rating CYPSE” value (CYPSE (Flatsedge); rate 0.0625 kg/ha) was 0.0. The “Herbicidal rating CYPSE” value (CYPSE (Flatsedge); rate 0.1250 kg/ha) was 1.5, the “Herbicidal rating CYPSE” value (CYPSE (Flatsedge); rate 0.2500 kg/ha) was 0.0 and the “ABUTH preemergence herbicidal rating” value (ABUTH (Velvetleaf) [9]; rate 0.0313 kg/ha) was 1.0. The “ABUTH preemergence herbicidal rating” value (ABUTH (Velvetleaf) [9]; rate 0.0625 kg/ha) was 2.0, the “ABUTH preemergence herbicidal rating” value (ABUTH (Velvetleaf) [9]; rate 0.1250 kg/ha) was 9.0 and the “ABUTH preemergence herbicidal rating” value (ABUTH (Velvetleaf) [9]; rate 0.2500 kg/ha) was 9.0. For the same molecule, the “ABUTH preemergence herbicidal rating” value (ABUTH (Velvetleaf) [9]; rate 0.5000 kg/ha) was 9.0, the ZEAMX herbicidal rating (ZEAMX (Corn, Field) [10]; rate 0.0156 kg/ha) was 7.0 and the ZEAMX herbicidal rating (ZEAMX (Corn, Field) [10]; rate 0.0313 kg/ha) was 7.0. For the same molecule, the ZEAMX herbicidal rating (ZEAMX (Corn, Field) [10]; rate 0.0625 kg/ha) was 7.5, the ZEAMX herbicidal rating (ZEAMX (Corn, Field) [10]; rate 0.1250 kg/ha) was 7.5 and the “GLXMAW preemergence herbicidal rating” value ([11]; rate 0.0313 kg/ha) was 0.0. For the same molecule, the “GLXMAW preemergence herbicidal rating” value ([11]; rate 0.0625 kg/ha) was 0.0, the “GLXMAW preemergence herbicidal rating” value ([11]; rate 0.1250 kg/ha) was 2.0 and the “GLXMAW preemergence herbicidal rating” value ([11]; rate 0.2500 kg/ha) was 3.0. The “GLXMAW preemergence herbicidal rating” value ([11]; rate 0.5000 kg/ha) was 6.0, the SETVI herbicidal rating (SETVI (Foxtail, Green); rate 0.0156 kg/ha) was 7.0 and the SETVI herbicidal rating (SETVI (Foxtail, Green); rate 0.0313 kg/ha) was 8.0. The SETVI herbicidal rating (SETVI (Foxtail, Green); rate 0.0625 kg/ha) was 9.0, the SETVI herbicidal rating (SETVI (Foxtail, Green); rate 0.1250 kg/ha) was 9.0 and the “ZEAMX preemergence herbicidal rating” value (ZEAMX (Corn, Field) [12]; rate 0.0313 kg/ha) was 0.0. The “ZEAMX preemergence herbicidal rating” value (ZEAMX (Corn, Field) [12]; rate 0.0625 kg/ha) was 0.0, the “ZEAMX preemergence herbicidal rating” value (ZEAMX (Corn, Field) [12]; rate 0.1250 kg/ha) was 1.5 and the “ZEAMX preemergence herbicidal rating” value (ZEAMX (Corn, Field) [12]; rate 0.2500 kg/ha) was 2.0. The “ZEAMX preemergence herbicidal rating” value (ZEAMX (Corn, Field) [12]; rate 0.5000 kg/ha) was 3.0, the “CASOB preemergence herbicidal rating” value (CASOB (Sicklepod); rate 0.0313 kg/ha) was 0.0 and the “CASOB preemergence herbicidal rating” value (CASOB (Sicklepod); rate 0.0625 kg/ha) was 1.0. The “CASOB preemergence herbicidal rating” value (CASOB (Sicklepod); rate 0.1250 kg/ha) was 1.5, the “CASOB preemergence herbicidal rating” value (CASOB (Sicklepod); rate 0.2500 kg/ha) was 2.0 and the “CASOB preemergence herbicidal rating” value (CASOB (Sicklepod); rate 0.5000 kg/ha) was 5.0.
